Results reported in publication PMC7047604 (Journal of medicinal chemistry, 2020).
“Also recorded” adds a separate entry of the source.

Columns and labels:
male C57BL/6 mice = conditions: mouse, in vivo
human KOR [1] = molecular target: T1, human KOR (Homo sapiens, UniProt P41145); assay type: binding
human DOR [2] = molecular target: T2, human DOR (Homo sapiens, UniProt P41143); assay type: binding
human KOR [3] = molecular target: T1, human KOR; assay type: biochemical
human DOR [4] = molecular target: T2, human DOR; assay type: biochemical
human MOR = human MOR (Homo sapiens, UniProt P35372); test: biochemical; assay type: biochemical; conditions: for Emax at 10 µM: read-out: Efficacy (% Stimulation) MOR
in vitro = conditions: mouse, microsomes, pH 7.4, metabolic half-life in MLM, abstract statement

T2 sequence (P41143 whole entry): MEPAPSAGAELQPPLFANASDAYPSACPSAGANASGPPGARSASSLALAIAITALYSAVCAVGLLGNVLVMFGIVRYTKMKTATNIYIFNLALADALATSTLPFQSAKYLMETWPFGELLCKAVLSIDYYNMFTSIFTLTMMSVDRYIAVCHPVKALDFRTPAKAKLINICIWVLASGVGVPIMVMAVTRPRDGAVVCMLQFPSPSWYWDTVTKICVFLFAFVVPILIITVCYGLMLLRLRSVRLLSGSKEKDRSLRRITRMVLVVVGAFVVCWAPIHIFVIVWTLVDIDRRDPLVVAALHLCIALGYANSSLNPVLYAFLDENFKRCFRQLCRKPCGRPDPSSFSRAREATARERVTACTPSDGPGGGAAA
T1 sequence (P41145 whole entry): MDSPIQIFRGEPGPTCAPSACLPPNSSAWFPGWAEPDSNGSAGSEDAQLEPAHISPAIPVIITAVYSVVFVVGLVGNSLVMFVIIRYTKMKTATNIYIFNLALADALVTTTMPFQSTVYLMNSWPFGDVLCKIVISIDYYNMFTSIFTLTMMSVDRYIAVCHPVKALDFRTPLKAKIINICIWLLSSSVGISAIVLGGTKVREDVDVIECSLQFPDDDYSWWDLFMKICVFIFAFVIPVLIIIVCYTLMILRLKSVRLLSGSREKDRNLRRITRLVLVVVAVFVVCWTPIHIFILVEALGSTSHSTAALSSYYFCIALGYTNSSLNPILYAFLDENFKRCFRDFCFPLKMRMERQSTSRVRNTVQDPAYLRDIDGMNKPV
human MOR, sequence (P35372 whole entry): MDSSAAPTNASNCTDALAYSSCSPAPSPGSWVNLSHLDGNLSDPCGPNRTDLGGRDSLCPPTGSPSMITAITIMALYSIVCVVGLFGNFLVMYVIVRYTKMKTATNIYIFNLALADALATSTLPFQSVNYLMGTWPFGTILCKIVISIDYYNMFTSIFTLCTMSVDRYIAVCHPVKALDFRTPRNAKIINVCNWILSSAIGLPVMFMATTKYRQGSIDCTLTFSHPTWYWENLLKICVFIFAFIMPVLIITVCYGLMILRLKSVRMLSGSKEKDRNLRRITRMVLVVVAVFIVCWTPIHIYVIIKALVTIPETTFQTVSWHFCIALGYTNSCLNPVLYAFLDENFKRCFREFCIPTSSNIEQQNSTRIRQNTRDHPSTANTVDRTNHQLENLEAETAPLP

## CCOc1ccc(CN2CCCC2)cc1CNC(=O)[C@@H](N)Cc1c(C)cc(O)cc1C.O=C(O)C(F)(F)F [Compound 13, (S)-1-((2-ethoxy-5-(pyrrolidin-1-ylmethyl)benzyl)amino)-3-(4-hydroxy-2,6-dimethylphenyl)-1-oxopropan-2-aminium trifluoroacetate]
Male C57BL/6 mice
  antinociceptive activity in AASA (overall): inactive; also recorded: lacked antinociceptive activity
Human KOR [1]
  Selectivity MOR:DOR:KOR, KOR term (Ki KOR / Ki MOR): 1:3.0:29
Human DOR [2]
  Selectivity MOR:DOR:KOR, DOR term (Ki DOR / Ki MOR): 1:3.0:29

## CCOc1ccc(CN2CCOCC2)cc1CNC(=O)[C@@H](N)Cc1c(C)cc(O)cc1C.O=C(O)C(F)(F)F [Compound 16, (S)-1-((2-ethoxy-5-(morpholinomethyl)benzyl)amino)-3-(4-hydroxy-2,6-dimethylphenyl)-1-oxopropan-2-aminium trifluoroacetate]
Human KOR [3]
  Efficacy (% Stimulation) KOR: DNS
  Potency, EC50 KOR: DNS
Human DOR [4]
  Efficacy (% Stimulation) DOR: did not stimulate DOR and DNS
  Potency, EC50 DOR: DNS
Human KOR [1]
  Selectivity MOR:DOR:KOR, KOR term (Ki KOR / Ki MOR): 1:2.0:>49
Human DOR [2]
  Selectivity MOR:DOR:KOR, DOR term (Ki DOR / Ki MOR): 1:2.0:>49

## CCOc1ccc(C(=O)N2CCCC2)cc1CNC(=O)[C@@H](N)Cc1c(C)cc(O)cc1C.O=C(O)C(F)(F)F [Compound 21, (S)-1-((2-ethoxy-5-(pyrrolidine-1-carbonyl)benzyl)amino)-3-(4-hydroxy-2,6-dimethylphenyl)-1-oxopropan-2-aminium trifluoroacetate]
Human KOR [3]
  Efficacy (% Stimulation) KOR: DNS
  Potency, EC50 KOR: DNS
Human DOR [4]
  Efficacy (% Stimulation) DOR: did not stimulate DOR and DNS
  Potency, EC50 DOR: DNS
Human KOR [1]
  Selectivity MOR:DOR:KOR, KOR term (Ki KOR / Ki MOR): 1:2.2:>22
Human MOR
  Efficacy (% Stimulation) MOR: DNS
  Potency, EC50 MOR: DNS
Human DOR [2]
  Selectivity MOR:DOR:KOR, DOR term (Ki DOR / Ki MOR): 1:2.2:>22

## CCOc1ccc(CN2Cc3ccccc3C2)cc1CNC(=O)[C@@H](N)Cc1c(C)cc(O)cc1C.O=C(O)C(F)(F)F [Compound 17, (S)-1-((2-ethoxy-5-(isoindolin-2-ylmethyl)benzyl)amino)-3-(4-hydroxy-2,6-dimethylphenyl)-1-oxopropan-2-aminium trifluoroacetate]
Human KOR [3]
  Efficacy (% Stimulation) KOR: DNS
  Potency, EC50 KOR: DNS
Male C57BL/6 mice
  antinociceptive activity in AASA at 1 mg/kg: active antinociceptive agents
Human DOR [4]
  Efficacy (% Stimulation) DOR: 35.7±2.8%
  partial DOR agonist, potency in words: moderate
Human MOR
  MOR agonist character in words: full agonists
  Emax at 10 µM: 98.1 ± 6.7%

## CCOc1ccc(CN2CCCCC2)cc1CNC(=O)[C@@H](N)Cc1c(C)cc(O)cc1C.O=C(O)C(F)(F)F [Compound 14, (S)-1-((2-ethoxy-5-(piperidin-1-ylmethyl)benzyl)amino)-3-(4-hydroxy-2,6-dimethylphenyl)-1-oxopropan-2-aminium trifluoroacetate]
Human KOR [3]
  Efficacy (% Stimulation) KOR: DNS
  Potency, EC50 KOR: DNS
Male C57BL/6 mice
  antinociceptive activity in AASA at 1 mg/kg: active antinociceptive agents
Human KOR [1]
  Selectivity MOR:DOR:KOR, KOR term (Ki KOR / Ki MOR): 1:3.1:20
In vitro
  half-life at 1 μM: > 1 h
Human DOR [2]
  Selectivity MOR:DOR:KOR, DOR term (Ki DOR / Ki MOR): 1:3.1:20

## CCOc1ccc(CN(C)Cc2ccccc2)cc1CNC(=O)[C@@H](N)Cc1c(C)cc(O)cc1C.O=C(O)C(F)(F)F [Compound 20, (S)-1-((5-((benzyl(methyl)amino)methyl)-2-ethoxybenzyl)amino)-3-(4-hydroxy-2,6-dimethylphenyl)-1-oxopropan-2-aminium trifluoroacetate]
Human KOR [3]
  Efficacy (% Stimulation) KOR: DNS
  Potency, EC50 KOR: DNS
Male C57BL/6 mice
  antinociceptive activity in AASA (overall): inactive; also recorded: lacked antinociceptive activity
Human DOR [4]
  Efficacy (% Stimulation) DOR: did not stimulate DOR and DNS
  Potency, EC50 DOR: DNS
Human KOR [1]
  KOR binding affinity in words: low double-digit
  Selectivity MOR:DOR:KOR, KOR term (Ki KOR / Ki MOR): 1:4.0:26
Human MOR
  Emax at 10 µM: 72.2 ± 6.2%
Human DOR [2]
  Selectivity MOR:DOR:KOR, DOR term (Ki DOR / Ki MOR): 1:4.0:26

## CCOc1ccc(CNCc2ccccc2)cc1CNC(=O)[C@@H](N)Cc1c(C)cc(O)cc1C.O=C(O)C(F)(F)F [Compound 19, (S)-1-((5-((benzylamino)methyl)-2-ethoxybenzyl)amino)-3-(4-hydroxy-2,6-dimethylphenyl)-1-oxopropan-2-aminium trifluoroacetate]
Human KOR [3]
  Efficacy (% Stimulation) KOR: >20%
Human DOR [4]
  Efficacy (% Stimulation) DOR: 26.1±1.7%
  partial DOR agonist, potency in words: high
Human KOR [1]
  KOR binding affinity in words: low double-digit
Human MOR
  Emax at 10 µM: 77.9 ± 3%

## CCOc1ccc(CN2CC3CC3C2)cc1CNC(=O)[C@@H](N)Cc1c(C)cc(O)cc1C.O=C(O)C(F)(F)F (stereo partly drawn) [Compound 15, (2S)-1-((5-((3-azabicyclo[3.1.0]hexan-3-yl)methyl)-2-ethoxybenzyl)amino)-3-(4-hydroxy-2,6-dimethylphenyl)-1-oxopropan-2-aminium trifluoroacetate]
Human KOR [1]
  Selectivity MOR:DOR:KOR, KOR term (Ki KOR / Ki MOR): 1:2.6:13
Human DOR [2]
  Selectivity MOR:DOR:KOR, DOR term (Ki DOR / Ki MOR): 1:2.6:13

## CCOc1ccc(C(=O)N2Cc3ccccc3C2)cc1CNC(=O)[C@@H](N)Cc1c(C)cc(O)cc1C.O=C(O)C(F)(F)F [Compound 22, (S)-1-((2-ethoxy-5-(isoindoline-2-carbonyl)benzyl)amino)-3-(4-hydroxy-2,6-dimethylphenyl)-1-oxopropan-2-aminium trifluoroacetate]
Human KOR [3]
  Efficacy (% Stimulation) KOR: DNS
  Potency, EC50 KOR: DNS
Human DOR [4]
  Efficacy (% Stimulation) DOR: did not stimulate DOR and DNS
  Potency, EC50 DOR: DNS
Human MOR
  Emax at 10 µM: 27.8 ± 0.7%
Human DOR [2]
  Selectivity MOR:DOR:KOR, DOR term (Ki DOR / Ki MOR): 1:20:900

## CCOc1ccc(CN2CCc3ccccc3C2)cc1CNC(=O)[C@@H](N)Cc1c(C)cc(O)cc1C.O=C(O)C(F)(F)F [Compound 18, (S)-1-((5-((3,4-dihydroisoquinolin-2(1H)-yl)methyl)-2-ethoxybenzyl)amino)-3-(4-hydroxy-2,6-dimethylphenyl)-1-oxopropan-2-aminium trifluoroacetate]
Human KOR [3]
  Efficacy (% Stimulation) KOR: DNS
  Potency, EC50 KOR: DNS
Human DOR [4]
  Efficacy (% Stimulation) DOR: did not stimulate DOR and DNS
  Potency, EC50 DOR: DNS
Human MOR
  MOR agonist character in words: full agonists
  Emax at 10 µM: 94.6 ± 3.9%
Human DOR [2]
  Selectivity MOR:DOR:KOR, DOR term (Ki DOR / Ki MOR): 1:10:192
